Like-named read-outs stand apart in the source and are kept apart here.
Columns and labels:
[1] = tested on: carrageenan-induced swelling of rat's footpad; experiment: Effect on carrageenan-induced swelling of rat's footpad; assay type: in vivo, Wistar male rats; conditions: for Foot volume after inflammation / Foot volume, Difference / Swelling rate / inhibition at 150 mg/kg: Aspirin 0.15 g/kg i.g. q.d. 3 days; for inhibition at 150 mg/kg: Rattus norvegicus, po, read-out: Inhibition rate
Protocol: • (1) The present medication to be tested, 6.25g crude drugs/g, provided by […] Pharmaceutical Co. […] SFDA Approval No. Z-11; […] The above-described medications were prepared into the required concentrations with distilled water in the experiment. • (4) Carrageenan, from SIGMA, lot number: 117H0151, prepared into required concentrations for the experiment. Sixty while Wistar male rats of Grade I with the mean body weight of 157.05 ± 8.49 g, provided by Institute of Laboratory Animal Science, Chinese Academy of Medical Sciences, License number: […] The sixty healthy rats were randomly assigned into the following six groups: (1) the blank control group administered with distilled water (10 ml/kg); […] (3) the […] group (1.5 g crude drugs/kg); (4) the low dosage group of the present medication (L-dosage group, 2 g crude drugs/kg); (5) the medium dosage group of the present medication (M-dosage group, 4 g crude drugs/kg); (6)the high dosage group of the present medication (H-dosage group, 8 g crude drugs/kg). The volume of the left hind foot of each animal determined by capillary amplification method was used as the value prior to administration. […] Comparisons among the groups were performed on the difference between the left foot volumes before and after inflammation by t-test.

[2] = tested on: xylene-induced ear swelling in mice; experiment: Effect on xylene-induced ear swelling in mice; assay type: in vivo, Kunming male mice; conditions: Aspirin 0.2 g/kg i.g. q.d. 3 days; weight of right minus left ear piece; n=10
Description: Sixty Kunming male mice of Grade II with the mean body weight of 19.77 ± 0.91 g, provided by the breeding farm of the Institute of Laboratory Animal Science, Chinese Academy of Medical Sciences, License number: SCXK (Jing) 2000-0006. • (1) The present medication to be tested, 6.25 g crude drugs/g, provided by […] Pharmaceutical Co. […] SFDA Approval No. Z-11; Lot number of the product: 060112; valid until December 2007. • (3) Aspirin enteric-coated tablet as a western medicine control, 0.3 g/tablet, produced by Yantai the Second Pharmaceutical Factory), lot number: 011102. The above-described medications were formulated with distilled water into the required concentrations in the experiment. Sixty healthy mice were randomly assigned into the following six groups with 10 animals per group: […] (2) the Aspirin group (0.2 g/kg); (3) the […] group (2 g crude drugs/kg); (4) the low dosage group of the present medication (L-dosage group, 3g crude drugs/kg); (5) the medium dosage group of the present medication (M-dosage group, 6g crude drugs/kg); (6)the high dosage group of the present medication (H-dosage group, 12g crude drugs/kg). […] Fifteen minutes later, the animal was sacrificed by dislocation. […] The degree of ear swelling for each mouse was calculated by subtraction of the weight of the left piece from that of the right piece. […]

[3] = tested on: tampon-induced granuloma in rats; experiment: Effect on small tampon-induced granuloma in rats; assay type: in vivo; conditions: Aspirin 0.15 g/kg i.g. q.d. 7 days; n=10
Description: Sixty Wistar […] of Grade II evenly composed of males and females with the mean body weight of 132.37 ± 6.31 g, provided by the breeding farm of the Institute of Laboratory Animal Science, Chinese […] of Medical Sciences, and License number: SCXK (Jing) 2000-0006. • (1) The present medication to be tested, 6.25 g crude drugs/g, provided by […] Pharmaceutical Co. […] No. Z-11; Lot number: 060112. • (3) Aspirin Enteric-coated Tablet as a western medicine control, 0.3 g/tablet, produced by Yantai the Second Pharmaceutical Factory), lot number: 051102. The medication was prepared to required concentrations with distilled water in the experiment. • (4) Ampicillin Sodium Injection (ASI), 0.5 g/bottle, Produced by North China Pharmaceutical Co., Ltd. lot number: F0111207. […] The average wet and dry weights of the post-inflammation granuloma for each of the groups were calculated, from which the original weight of the cotton ball had been subtracted, and were compared among the groups by t-test.

CC(=O)Oc1ccccc1C(=O)O [Aspirin]
Foot volume after inflammation ([1]; 0.5h): 1.19 ± 0.04 mL | Foot volume, Difference ([1]; 0.5h): 0.21 ± 0.05 mL | Swelling rate ([1]; 0.5h): 21.4±5.49 % | Foot volume after inflammation ([1]; 1h): 1.23 ± 0.04 mL | Foot volume, Difference ([1]; 1h): 0.25 ± 0.03 mL | Swelling rate ([1]; 1h): 25.4±3.87 % | Foot volume after inflammation ([1]; 2h): 1.27 ± 0.02 mL | Foot volume, Difference ([1]; 2h): 0.29 ± 0.03 mL | Swelling rate ([1]; 2h): 29.7±4.00 % | Foot volume after inflammation ([1]; 4h): 1.30 ± 0.04 mL | Foot volume, Difference ([1]; 4h): 0.32 ± 0.04 mL | Swelling rate ([1]; 4h): 32.80±4.78 % | Foot volume after inflammation ([1]; 6h): 1.24 ± 0.03 mL | Foot volume, Difference ([1]; 6h): 0.26 ± 0.04 mL | Swelling rate ([1]; 6h): 26.26±3.95 % | Foot volume before inflammation ([1]; Aspirin group 0.15 g/kg, baseline, n=10): 0.98 ± 0.03 mL | inhibition at 150 mg/kg ([1]; 0.5h): 41.5% | inhibition at 150 mg/kg ([1]; 1h): 41.2% | inhibition at 150 mg/kg ([1]; 2h): 38.6% | inhibition at 150 mg/kg ([1]; 4h): 32.1% | inhibition at 150 mg/kg ([1]; 6h): 45.6% | Swelling rate [2]: 3.50 ± 0.71 mg | Dry weight of granuloma [3]: 99.20 ± 10.16 mg | Wet weight of granuloma [3]: 457.85 ± 50.01 mg

From patent EP2450046B1, “A MEDICINAL COMPOSITION FOR THE TREATMENT OF BRONCHITIS AND PREPARATION THEREOF” (Hebei Yiling Medicine Research Institute Co., Ltd., priority 2009, dated 2011)
